Patent US20130150317A1, “COMPOUNDS FOR THE TREATMENT OF RENAL CELL CARCINOMA” (Myrovlytis Technology Ventures Limited, priority 2010, published 2013)
Entries after “also recorded” stand apart in the source; their conditions may differ. Read-outs that look alike come from different tables or passages of the source.

Key:
[1] = test system: 786-O cells with mutant VHL; experiment: SRB growth inhibition in 786-O cells with mutant VHL; type: cell-based, human
Source text: (§1) Human renal carcinoma of BHD origin cells UOK-257 (UOK-FLCN^−) and FLCN transfected UOK-257 cells UOK-FLCN^+ (Yang et al Cancer Genet Cytogenet. 2008 Jan. 15; 180(2):100-9) were provided by Dr Marston Linehan and Dr. Laura S Schmidt (Urologic Oncology Branch, Centre for Cancer Research, National Cancer Institute, National Institutes of Health, Bethesda, Md. 20892, USA). UOK-257 is the only RCC cell line that has been derived from a patient with BHD and harbours a germline FLCN frameshift mutation (c.1285dupC) (predicted, in the absence of nonsense mediated mRNA decay, to lead to premature protein truncation (p.His429ProfsX27) (Yang et al., Cancer Genet Cytogenet, 2008 Jan. 15; 180(2):100-9). We are not aware of any sporadic RCC cell lines with homozygous FLCN inactivation. FTC-133 cells were purchased from ECACC (Salisbury, United Kingdom). These cells are a non-RCC cell line derived from human thyroid carcinoma. 786-0 cells were available from the author's lab (Clifford et al., Hum Mol Genet. 2001 May 1; 10(10):1029-38). 786-O is a kidney cancer cell line that harbours an inactivating VHL gene mutation (c.311delG p.G104fs*55). All cell lines were cultured in DMEM with supplement of 10% foetal bovine serum except for FTC-133 cells which were incubated in medium with DMEM and Hens (1:1).
(§2) The sensitivity of the cell lines to drug-induced cell growth inhibition was determined using the sulphorhodamine B assay (SRB) as described by Lu et al., Clin Cancer Res. 2001:7:2114-23. Briefly, adherent exponentially growing cells were seeded into 96-well plates at 3-5×10^3 cells/100 μl/well. After 20-24 h at 37° C., drugs were added at the appropriate drug concentrations to the wells (final DMSO conc. 1%) as indicated in the Results section. […] The absorbance per well was measured at 570 nm on a Victor X3 Multilabel Plate Reader (PerkinElmor, Beaconsfield, United Kingdom).
Cells were exposed continuously to various concentrations of drugs for 72 hours. GI50 values were determined as the concentrations at 50% growth inhibition from at least three experiments.

[2] = test system: caspase3/7 activity in UOK257-FLCN^− and UOK257-FLCN^+ cells; experiment: Caspase-Glo 3/7 assay in UOK-257 cells with/without FLCN expression; type: cell-based, human
Method: (§3) The ability to induce caspase 3/7 activation after exposure to compounds was measured by Caspase-Glo 3/7 Assay (Promega, Southampton, United Kingdom) according to manufacturer's instruction. The cells were seeded and dosed as described in growth inhibition assay. At the end of incubation, 70 μl of medium was removed and 30 μl of assay reagent was added to the remaining medium. Additional one hour incubation with shaking was carried out at room temperature. The resultant luminescent light was measured in a Victor X3 Multilabel Plate Reader (PerkinElmer, Beaconsfield, United Kingdom). Cell viability after compound exposure was determined by CellTiter-Blue Cell Viability Assay (Promega, Southampton, the United Kingdom) according to manufacturer's instruction. At the end of drug treatment, 20 μl of reagent was added to the medium in 96 wells and the cells were incubated for additional 4 hours. The cell viability was measured by fluorescence with a 570 nm excitation and 590 nm emission set in a Victor X3 Multilabel Plate Reader (PerkinElmer, Beaconsfield, United Kingdom).
After 48 hrs incubation, with three concentration ranges for each drug, the capase3/7 activity was detected by amount of luminescence for each cell line. The ratio of caspase3/7 activity from UOK257-FLCN^− and UOK257-FLCN^+ were calculated and used as indicators for the ability of the individual compound to induce caspase3/7 activity to FLCN mutant cells.
These ratios were calculated and used as indicators for the sensitivity to mutant FLCN cells.

[3] = test system: UOK257-FLCN^− and UOK257-FLCN^+ cells; experiment: CellTiter-Blue cell viability assay in UOK-257 cells with/without FLCN expression; type: cell-based, human; conditions: 200 nM, 48 hrs
Method: as §3
These were calculated and used as indicators for the sensitivity to mutant FLCN cells. Cells were exposed continuously to the indicated concentrations of drugs for 48 hours. Values are the mean±SD from at least three experiments.

[4] = test system: UOK-FLCN^+ cells; conditions: 4×GI50 mithramycin, no rapamycin
Method: At the end of the time course, media was carefully removed and cells were fixed in 85% ice-cold ethanol. After removal of ethanol, cells were incubated in the dark at 37° C. for 20 minutes in PBS buffers containing 0.1% Triton X-100, 100 mg/mL RNase A and 10 mg/mL Propidium iodide (PI). The 96-well plates were subsequently scanned using the Acumen eX3 cytometer (TTP LabTech).

[5] = test system: FTC-133 cells transfected with empty vector; experiment: SRB growth inhibition in FTC-133 cells, empty vector; type: cell-based, human; conditions: for GI50: Homo sapiens; for differential sensitivity in FTC-133 cells with different levels of FLCN expression (in words): SRB assay
Source text: as §1
as §2, with “μl/well.” for “μl/well. After 20-24 h at 37° C., drugs were added at the appropriate drug concentrations to the wells (final DMSO conc. 1%) as indicated in the Results section.”
(§4) A FLCN containing construct was introduced into parental FTC-133 cells and stably transfected cells were selected. SRB growth inhibition assay was carried out in cells transfected with empty vector and low FLCN and high FLCN expression.
as §4

CO[C@H](C(=O)[C@@H](O)[C@@H](C)O)C1Cc2cc3cc(OC4CC(OC5CC(O)C(O)C(C)O5)C(O)C(C)O4)c(C)c(O)c3c(O)c2C(=O)[C@H]1OC1CC(OC2CC(OC3CC(C)(O)C(O)C(C)O3)C(O)C(C)O2)C(O)C(C)O1 (stereo partly shown) [mithramycin, Mithramycin]
fold greater growth inhibitory sensitivity in 786-O mutant VHL versus wt VHL [1]: ~3 fold
GI50 ([1]; Homo sapiens, 786-0, 72 h, read-out: GI50 in 786-O cells with mutant VHL): 117 ± 37 nM
induction of caspase 3/7 activity, FLCN-null versus FLCN-wild type cells (in words) [2]: preferentially induced caspase 3/7 activity in UOK257 FLCN-null cells in a dose dependent manner; also recorded: Differential ability to induce caspase 3/7 activity
induction of caspase 3/7 activity, FLCN-null versus FLCN-wild type cells (in words) ([2]; listed as Mithramycin): preferentially induces caspase 3/7 activity in FLCN-null cells in a dose dependent manner
ratio of cell viability from UOK257-FLCN^+ and UOK257-FLCN^− (cell death) [3]: 2 fold
increase in S and G2-M phases [4]: 15%
GI50 ([5]; FTC-133, 72 h, read-out: GI50 in FTC-133 cells, empty vector): 59.3 ± 8.9 nM
GI50 ([5]; FTC-133, read-out: GI50 in FTC-133 cells, empty vector): 59.3 ± 8.9 nM
differential sensitivity in FTC-133 cells with different levels of FLCN expression (in words) [5]: no apparent differential mithramycin sensitivity
differential sensitivity in FTC-133 cells with different levels of FLCN expression (in words) ([5]; listed as Mithramycin): does not show genotypic selective growth inhibitory activity
